Data as given in ChEMBL document CHEMBL1201862, “PubChem BioAssay data set” (2004).
Activity calls are given as the source filed them.

Tests used:
[1] = biological target: T1, Short transient receptor potential channel 4 (Mus musculus, UniProt Q9QUQ5); test: calcium entry via TRPC4 opening agents – cell-based, HEK293 TRPC4/mu-opioid, Fluo-4 calcium, dose response (AID 434937); format: functional
T1 sequence (Q9QUQ5 whole entry): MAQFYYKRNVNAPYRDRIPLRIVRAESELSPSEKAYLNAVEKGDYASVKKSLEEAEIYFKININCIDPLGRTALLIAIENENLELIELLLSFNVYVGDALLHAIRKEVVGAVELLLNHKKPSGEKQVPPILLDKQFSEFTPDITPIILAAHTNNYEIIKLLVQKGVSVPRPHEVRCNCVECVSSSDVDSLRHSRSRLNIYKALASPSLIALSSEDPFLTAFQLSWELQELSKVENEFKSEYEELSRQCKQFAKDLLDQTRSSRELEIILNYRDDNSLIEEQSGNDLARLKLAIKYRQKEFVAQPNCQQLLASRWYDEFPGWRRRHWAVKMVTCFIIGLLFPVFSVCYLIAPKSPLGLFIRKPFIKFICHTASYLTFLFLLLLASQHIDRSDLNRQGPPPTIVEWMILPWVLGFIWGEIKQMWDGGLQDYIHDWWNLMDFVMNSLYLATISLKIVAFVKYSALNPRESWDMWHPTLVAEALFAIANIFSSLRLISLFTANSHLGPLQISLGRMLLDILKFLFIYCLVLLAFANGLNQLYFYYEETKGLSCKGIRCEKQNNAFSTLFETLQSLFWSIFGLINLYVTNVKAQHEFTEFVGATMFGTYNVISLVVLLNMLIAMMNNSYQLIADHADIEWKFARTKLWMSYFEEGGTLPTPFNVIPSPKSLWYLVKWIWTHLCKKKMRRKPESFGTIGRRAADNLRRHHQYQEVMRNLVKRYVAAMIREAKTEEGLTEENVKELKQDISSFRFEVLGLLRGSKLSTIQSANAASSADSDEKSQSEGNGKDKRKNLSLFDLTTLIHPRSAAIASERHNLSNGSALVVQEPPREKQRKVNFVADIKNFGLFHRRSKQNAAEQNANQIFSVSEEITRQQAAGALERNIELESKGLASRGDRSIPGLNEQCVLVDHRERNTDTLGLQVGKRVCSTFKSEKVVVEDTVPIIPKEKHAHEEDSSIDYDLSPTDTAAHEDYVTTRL

Cysteine protease ATG4B = biological target: T2, Cysteine protease ATG4B (Homo sapiens, UniProt Q9Y4P1); format: functional;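 further: Fluorescence-based dose-response confirmation assay measuring inhibition of ATG4B activity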
T2 sequence (Q9Y4P1 whole entry): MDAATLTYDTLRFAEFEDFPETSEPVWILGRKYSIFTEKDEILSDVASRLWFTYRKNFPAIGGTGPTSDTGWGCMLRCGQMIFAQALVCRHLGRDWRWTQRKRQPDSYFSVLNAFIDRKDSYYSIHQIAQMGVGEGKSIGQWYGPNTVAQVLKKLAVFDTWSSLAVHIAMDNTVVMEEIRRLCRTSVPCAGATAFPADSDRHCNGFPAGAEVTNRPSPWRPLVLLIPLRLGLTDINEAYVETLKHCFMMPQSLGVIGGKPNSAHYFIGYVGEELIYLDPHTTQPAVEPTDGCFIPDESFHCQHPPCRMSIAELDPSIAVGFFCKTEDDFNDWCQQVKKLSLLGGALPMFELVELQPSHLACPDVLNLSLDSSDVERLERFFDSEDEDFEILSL

Phospholipase A2 = Phospholipase A2 (Homo sapiens, UniProt P04054); format: functional;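 further: confirmatory dose-response counterscreen on phospholipase A2, testing hits that came from an ultra-high-throughput screen for ATG4B inhibitors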
Chain of Phospholipase A2 (P04054 whole entry, the tested form may be a part): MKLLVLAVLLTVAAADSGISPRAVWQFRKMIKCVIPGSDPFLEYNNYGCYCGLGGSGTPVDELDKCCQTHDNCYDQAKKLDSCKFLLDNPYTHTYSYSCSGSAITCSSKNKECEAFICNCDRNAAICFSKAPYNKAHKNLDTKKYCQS

[2] = biological target: T3, Carboxy-terminal domain RNA polymerase II polypeptide A small phosphatase 1 (Homo sapiens, UniProt Q9GZU7); test: CTDSP1 inhibitors, concentration-response, biochemical, absorbance readout, ultra-high-throughput screen actives (AID 540297); format: functional
T3 sequence (Q9GZU7 whole entry): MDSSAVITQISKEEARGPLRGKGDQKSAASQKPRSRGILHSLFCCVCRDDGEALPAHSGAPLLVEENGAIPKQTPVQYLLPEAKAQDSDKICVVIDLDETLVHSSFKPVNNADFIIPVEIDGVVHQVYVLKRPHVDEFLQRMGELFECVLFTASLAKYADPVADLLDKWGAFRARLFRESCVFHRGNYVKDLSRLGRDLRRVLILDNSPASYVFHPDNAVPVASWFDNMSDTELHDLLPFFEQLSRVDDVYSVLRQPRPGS

Cytochrome P450 2C19 = Cytochrome P450 2C19 (Homo sapiens, UniProt P33261); test: Cytochrome panel assay with activity outcomes. Panel member name: p450-cyp2c19 Compounds with AC50 equal or less than 10 uM are considered active; format: functional; details: read-out: AC50
Chain of Cytochrome P450 2C19 (P33261 whole entry): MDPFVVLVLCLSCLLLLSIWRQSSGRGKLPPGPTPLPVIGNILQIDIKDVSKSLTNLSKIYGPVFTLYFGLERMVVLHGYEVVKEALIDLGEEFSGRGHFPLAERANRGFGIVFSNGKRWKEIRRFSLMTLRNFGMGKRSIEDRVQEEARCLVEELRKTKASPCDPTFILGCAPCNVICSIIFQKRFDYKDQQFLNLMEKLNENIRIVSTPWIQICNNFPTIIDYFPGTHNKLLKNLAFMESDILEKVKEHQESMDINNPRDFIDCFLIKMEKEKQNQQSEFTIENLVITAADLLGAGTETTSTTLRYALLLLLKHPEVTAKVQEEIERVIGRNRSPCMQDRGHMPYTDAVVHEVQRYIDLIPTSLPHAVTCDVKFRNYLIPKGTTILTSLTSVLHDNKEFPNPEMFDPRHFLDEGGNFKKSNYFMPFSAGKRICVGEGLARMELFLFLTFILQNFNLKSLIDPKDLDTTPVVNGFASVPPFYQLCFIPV

Cytochrome P450 1A2 = biological target: T4, Cytochrome P450 1A2 (Homo sapiens, UniProt P05177);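 further: PubChem cytochrome P450 panel assay, CYP1A2 panel member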
T4 sequence (P05177 whole entry): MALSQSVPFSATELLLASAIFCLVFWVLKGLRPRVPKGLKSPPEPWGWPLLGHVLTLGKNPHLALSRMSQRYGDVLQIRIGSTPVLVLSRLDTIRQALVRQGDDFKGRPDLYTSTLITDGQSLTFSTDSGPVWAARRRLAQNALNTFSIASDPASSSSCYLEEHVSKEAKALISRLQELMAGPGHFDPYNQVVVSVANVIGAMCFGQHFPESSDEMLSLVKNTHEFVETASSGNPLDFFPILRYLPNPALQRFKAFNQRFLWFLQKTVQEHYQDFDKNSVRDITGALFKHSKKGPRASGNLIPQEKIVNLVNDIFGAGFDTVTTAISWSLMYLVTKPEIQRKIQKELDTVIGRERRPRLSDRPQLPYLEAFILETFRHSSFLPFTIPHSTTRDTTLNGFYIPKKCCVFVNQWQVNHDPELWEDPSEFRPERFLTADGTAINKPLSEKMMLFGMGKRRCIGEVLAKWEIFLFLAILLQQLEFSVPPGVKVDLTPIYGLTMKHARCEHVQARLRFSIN

[3] = biological target: Heat shock protein HSP 90-alpha (Homo sapiens, UniProt P07900); format: functional, organism-based
P388/ADR = test: cells; format: functional; details: Mus musculus
SN12K1 = test: cells; format: functional; details: Homo sapiens
P388 = test: cells; format: functional; details: Mus musculus
[4] = biological target: T5, RNA-binding protein pos-1 (Caenorhabditis elegans, UniProt G5EF15); test: disruptors of C. elegans POS-1 RNA interaction – biochemical, fluorescence polarization, dose response (AID 1964);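 further: purified POS-1 fused to maltose binding protein made in E. coli; potency of compounds blocking POS-1 binding to fluorescent RNA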
T5 sequence (G5EF15 whole entry): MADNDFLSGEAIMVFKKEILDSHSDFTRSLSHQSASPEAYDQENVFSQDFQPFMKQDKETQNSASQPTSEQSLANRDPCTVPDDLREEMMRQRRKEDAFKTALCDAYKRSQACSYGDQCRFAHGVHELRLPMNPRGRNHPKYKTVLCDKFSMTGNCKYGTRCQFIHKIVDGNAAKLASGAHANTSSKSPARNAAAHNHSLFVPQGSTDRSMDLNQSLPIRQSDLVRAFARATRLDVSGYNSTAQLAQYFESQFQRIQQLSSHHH

[5] = biological target: T6, Zinc finger protein mex-5 (Caenorhabditis elegans, UniProt Q9XUB2); test: potency of MEX-5 RNA-binding blockers – biochemical, C. elegans, fluorescence polarization, dose response (AID 1960)
T6 sequence (Q9XUB2 whole entry): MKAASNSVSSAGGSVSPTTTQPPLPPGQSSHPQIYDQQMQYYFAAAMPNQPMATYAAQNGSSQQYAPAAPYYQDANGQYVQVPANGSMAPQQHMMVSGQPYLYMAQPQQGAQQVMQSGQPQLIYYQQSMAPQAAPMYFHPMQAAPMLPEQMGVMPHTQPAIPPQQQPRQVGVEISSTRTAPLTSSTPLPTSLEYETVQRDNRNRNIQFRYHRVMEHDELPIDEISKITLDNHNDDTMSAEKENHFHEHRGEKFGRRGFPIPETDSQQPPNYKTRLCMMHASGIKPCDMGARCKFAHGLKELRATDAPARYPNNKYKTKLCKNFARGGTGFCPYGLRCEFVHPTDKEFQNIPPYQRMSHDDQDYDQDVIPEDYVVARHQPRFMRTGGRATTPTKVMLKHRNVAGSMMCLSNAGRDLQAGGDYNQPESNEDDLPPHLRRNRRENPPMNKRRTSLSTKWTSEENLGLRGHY

[6] = biological target: T7, High affinity choline transporter 1 (Homo sapiens, UniProt Q9GZV3); test: human choline transporter blockers, potency – cell-based, 5-point CRC, membrane potential dye, dose response (AID 504840); format: functional
T7 sequence (Q9GZV3 whole entry): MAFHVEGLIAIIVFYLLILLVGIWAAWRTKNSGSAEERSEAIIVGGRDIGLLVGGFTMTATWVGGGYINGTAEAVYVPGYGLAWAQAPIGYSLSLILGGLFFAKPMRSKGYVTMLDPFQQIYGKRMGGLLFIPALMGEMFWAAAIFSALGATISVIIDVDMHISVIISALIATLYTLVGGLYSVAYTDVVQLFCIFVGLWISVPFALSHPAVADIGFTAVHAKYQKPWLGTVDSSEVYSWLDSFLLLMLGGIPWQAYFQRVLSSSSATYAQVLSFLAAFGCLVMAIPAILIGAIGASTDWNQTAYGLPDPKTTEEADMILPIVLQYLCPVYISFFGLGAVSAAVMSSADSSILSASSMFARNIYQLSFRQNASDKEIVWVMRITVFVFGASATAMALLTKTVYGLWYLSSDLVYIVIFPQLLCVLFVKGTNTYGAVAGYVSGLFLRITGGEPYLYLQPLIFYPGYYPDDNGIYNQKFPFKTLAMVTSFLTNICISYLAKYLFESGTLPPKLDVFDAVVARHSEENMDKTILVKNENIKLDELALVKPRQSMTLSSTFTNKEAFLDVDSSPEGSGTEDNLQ

O=c1c(Cc2ccc(F)cc2)c(O)ccn1CCc1c[nH]cn1
EC50 [1]: 5.31 µM (active)

C=CCn1c(SCc2nc3scc(-c4ccccc4)c3c(=O)[nH]2)nnc1-c1ccccc1F
IC50 (Cysteine protease ATG4B): 15.9 µM (active) | IC50 (Phospholipase A2): 12.1 µM (active)

CSc1nc2nccc(-c3ccc(Cl)cc3)n2n1
IC50 [2]: 11.3 µM (active)

CCCCCN1CC(=O)C(c2nc(-c3ccc(Cl)cc3)cs2)=C1N
AC50 (Cytochrome P450 2C19): 1.12 µM (inconclusive) | IC50 [2]: 5.38 µM (active) | AC50 (Cytochrome P450 1A2): 1.58 µM (inconclusive)

Cc1cccc(N2CCN(C(=O)C3CCN(c4ncnc5c4nc4n5CCCCC4)CC3)CC2C)c1 (stereo unspecified)
IC50 (Cysteine protease ATG4B): 15.3 µM (active) | IC50 (Phospholipase A2): 11.1 µM (active)

COc1ccc(C(CNC(=O)c2cc(C)on2)N(C)C)cc1 (stereo unspecified)
EC50 [1]: 0.376 µM (active)

COc1ccc(C(CNC(=O)C2CCN(S(=O)(=O)c3ccc(F)cc3)CC2)N(C)C)cc1 (stereo unspecified)
EC50 [1]: 2.11 µM (active)

O=C(/C=C/c1ccnc2ccccc12)c1cccs1
AC50 [3]: 5.63 µM (active)

O=C(c1ccc(Cl)cc1)N1CCN(c2ccc(F)cc2)CC1
AC50 [3]: 5.2 µM (active)

CC(=O)Nc1ccc(CN2CCCC(C(=O)c3ccc(C(F)(F)F)cc3)C2)cc1 (stereo unspecified)
EC50 [1]: 2.66 µM (active)

CC12CCC(C(=O)N3CC=CCC3)(OC1=O)C2(C)C (stereo unspecified)
GI50 (P388/ADR): > 100 µM (inactive) | GI50 (SN12K1): > 100 µM (inactive) | GI50 (P388): > 100 µM (inactive)

O=C[C@@H](CO)O[C@H](C=O)c1c[nH]c(=O)[nH]c1=O
GI50 (P388/ADR): 38.1 µM (inactive) | GI50 (SN12K1): 76.6 µM (inactive) | GI50 (P388): > 80.7 µM (inactive)

CCCC(=O)OCC1OC(n2ccc(N)nc2=O)C(OC(=O)CCC)C1OC(=O)CCC (stereo unspecified)
GI50 (P388/ADR): 11.1 µM (inactive) | GI50 (SN12K1): 1.86 µM (inactive) | GI50 (P388): 0.2 µM (active)

CC(C)Cc1ccc(C(C)C(=O)N2CCN(/C=C/c3ccccc3)CC2)cc1 (stereo unspecified)
GI50 (P388/ADR): 10.9 µM (inactive) | GI50 (SN12K1): 13.7 µM (inactive) | GI50 (P388): 7.35 µM (inactive)

COC(=O)c1ccc(/N=N/N(C)COc2ccc(Br)cc2)cc1
GI50 (P388/ADR): 32.8 µM (inactive) | GI50 (SN12K1): > 66.8 µM (inactive) | GI50 (P388): 27 µM (inactive)

O=C(N/N=C/c1cccn1-c1cccc(C(=O)O)c1)Nc1ccccc1
EC50 [4]: > 300 µM (not active) | EC50 [5]: > 300 µM (not active) | IC50 [2]: 8.69 µM (active)

O/N=N/c1cnccn1
GI50 (P388/ADR): 668 µM (inactive) | GI50 (SN12K1): 1070 µM (inactive) | GI50 (P388): > 721 µM (inactive)

Oc1c(Cl)cc(Cl)cc1/C=N/c1ccc2c(c1)OCCO2
IC50 (Cysteine protease ATG4B): 7.3 µM (active) | IC50 (Phospholipase A2): 11.2 µM (active) | IC50 [6]: 10 µM (active)

CCOC(=O)C1=C(C)N=c2s/c(=C\c3cccc(OCC(=O)O)c3)c(=O)n2C1c1ccccc1OC (stereo unspecified)
IC50 [2]: 4.32 µM (active)

Cc1ccc2nc(N/N=C/c3ccccc3F)nc(-c3ccccc3)c2c1
IC50 (Cysteine protease ATG4B): 17.9 µM (active) | IC50 (Phospholipase A2): 9.15 µM (active)
